# Data published in PubChem BioAssay (NCI).
# Values joined by “and” are separate entries in the source; they are usually repeats but may differ in a detail not shown here. Equal entries are not always repeated.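 A five-concentration, 48-hour dose response in 96-well plates underlies each endpoint, interpolated linearly between surrounding concentrations. At the GI50, growth is halved. At the TGI there is no net growth.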
# Key:
# Test in all cases: inhibition of tumour cell growth, NCI panel, 48 h
# MDA-MB-231 breast = tested on: MDA-MB-231 breast
# SN12C renal = tested on: SN12C renal
# SW-620 colon = tested on: SW-620 colon
# HCC-2998 colon = tested on: HCC-2998 colon
# SNB-19 CNS = tested on: SNB-19 CNS
# SF-268 CNS = tested on: SF-268 CNS
# A498 renal = tested on: A498 renal
# UACC-62 melanoma = tested on: UACC-62 melanoma
# BT-549 breast = tested on: BT-549 breast
# LOX IMVI melanoma = tested on: LOX IMVI melanoma
# 786-0 renal = tested on: 786-0 renal
# NCI/ADR-RES ovarian = tested on: NCI/ADR-RES ovarian
# T-47D breast = tested on: T-47D breast
# MDA-MB-435 = tested on: MDA-MB-435
# SK-MEL-2 melanoma = tested on: SK-MEL-2 melanoma
# SK-OV-3 ovarian = tested on: SK-OV-3 ovarian
# EKVX NSCLC = tested on: EKVX NSCLC
# HCT-15 colon = tested on: HCT-15 colon
# PC-3 prostate = tested on: PC-3 prostate
# A549 NSCLC = tested on: A549 NSCLC
# U251 CNS = tested on: U251 CNS
# MALME-3M melanoma = tested on: MALME-3M melanoma
# UO-31 renal = tested on: UO-31 renal
# HCT-116 colon = tested on: HCT-116 colon
# SF-295 CNS = tested on: SF-295 CNS
# NCI-H226 lung = tested on: NCI-H226 lung
# SNB-75 CNS = tested on: SNB-75 CNS
# SK-MEL-5 melanoma = tested on: SK-MEL-5 melanoma
# MCF7 breast = tested on: MCF7 breast
# OVCAR-5 ovarian = tested on: OVCAR-5 ovarian
# HT29 colon = tested on: HT29 colon
# OVCAR-8 ovarian = tested on: OVCAR-8 ovarian
# HOP-92 NSCLC = tested on: HOP-92 NSCLC
# RPMI-8226 leukemia = tested on: RPMI-8226 leukemia
# IGROV1 ovarian = tested on: IGROV1 ovarian
# MOLT-4 leukemia = tested on: MOLT-4 leukemia
# CCRF-CEM leukemia = tested on: CCRF-CEM leukemia
# OVCAR-3 ovarian = tested on: OVCAR-3 ovarian
# NCI-H522 lung = tested on: NCI-H522 lung
# COLO 205 colon = tested on: COLO 205 colon
# NCI-H23 lung = tested on: NCI-H23 lung
# K-562 leukemia = tested on: K-562 leukemia
# SK-MEL-28 melanoma = tested on: SK-MEL-28 melanoma
# CAKI-1 renal = tested on: CAKI-1 renal
# ACHN renal = tested on: ACHN renal
# KM12 colon = tested on: KM12 colon
# NCI-H460 lung = tested on: NCI-H460 lung
# HL-60(TB) leukemia = tested on: HL-60(TB) leukemia
# RXF 393 renal = tested on: RXF 393 renal
# MDA-MB-468 breast = tested on: MDA-MB-468 breast
# UACC-257 melanoma = tested on: UACC-257 melanoma
# SF-539 CNS = tested on: SF-539 CNS
# TK-10 renal = tested on: TK-10 renal
# DU-145 prostate = tested on: DU-145 prostate
# OVCAR-4 ovarian = tested on: OVCAR-4 ovarian
# HS 578T breast = tested on: HS 578T breast
# M14 melanoma = tested on: M14 melanoma
structure (smiles),measurement,setting,value
COc1ccc(NC(=O)CSc2nnc(-c3ccc(-c4nc5ccccc5[nH]4)cc3)o2)cc1,GI50,MDA-MB-231 breast,1.89 µM
same,TGI,MDA-MB-231 breast,3.45 µM
same,GI50,SN12C renal,1.84 µM
same,TGI,SN12C renal,3.59 µM
same,GI50,SW-620 colon,2.34 µM
same,TGI,SW-620 colon,6.39 µM
same,GI50,HCC-2998 colon,12.1 µM
same,TGI,HCC-2998 colon,34.6 µM
same,GI50,SNB-19 CNS,2.04 µM
same,TGI,SNB-19 CNS,4.04 µM
same,GI50,SF-268 CNS,2.02 µM
same,TGI,SF-268 CNS,4.2 µM
same,GI50,A498 renal,2.1 µM
same,TGI,A498 renal,5.75 µM
same,GI50,UACC-62 melanoma,1.63 µM
same,TGI,UACC-62 melanoma,3.04 µM
same,GI50,BT-549 breast,1.94 µM
same,TGI,BT-549 breast,4.09 µM
same,GI50,LOX IMVI melanoma,1.81 µM
same,TGI,LOX IMVI melanoma,3.38 µM
same,GI50,786-0 renal,1.92 µM
same,TGI,786-0 renal,3.63 µM
same,GI50,NCI/ADR-RES ovarian,9.32 µM
same,TGI,NCI/ADR-RES ovarian,> 100 µM
same,GI50,T-47D breast,3.1 µM
same,TGI,T-47D breast,9.51 µM
same,GI50,MDA-MB-435,2.08 µM
same,TGI,MDA-MB-435,4.55 µM
same,GI50,SK-MEL-2 melanoma,2.07 µM
same,TGI,SK-MEL-2 melanoma,4.45 µM
same,GI50,SK-OV-3 ovarian,2.36 µM
same,TGI,SK-OV-3 ovarian,4.94 µM
same,GI50,EKVX NSCLC,1.98 µM
same,TGI,EKVX NSCLC,4.21 µM
same,GI50,HCT-15 colon,2.3 µM
same,TGI,HCT-15 colon,5.67 µM
same,GI50,PC-3 prostate,2.06 µM
same,TGI,PC-3 prostate,3.96 µM
same,GI50,A549 NSCLC,1.97 µM
same,TGI,A549 NSCLC,4.22 µM
same,GI50,U251 CNS,1.83 µM
same,TGI,U251 CNS,3.36 µM
same,GI50,MALME-3M melanoma,1.69 µM
same,TGI,MALME-3M melanoma,3.14 µM
same,GI50,UO-31 renal,2.8 µM
same,TGI,UO-31 renal,10.4 µM
same,GI50,HCT-116 colon,2.38 µM
same,TGI,HCT-116 colon,5.9 µM
same,GI50,SF-295 CNS,1.79 µM
same,TGI,SF-295 CNS,3.34 µM
same,GI50,NCI-H226 lung,1.92 µM
same,TGI,NCI-H226 lung,4.17 µM
same,GI50,SNB-75 CNS,1.83 µM
same,TGI,SNB-75 CNS,3.89 µM
same,GI50,SK-MEL-5 melanoma,1.91 µM
same,TGI,SK-MEL-5 melanoma,3.94 µM
same,GI50,MCF7 breast,2.35 µM
same,TGI,MCF7 breast,6.4 µM
same,GI50,OVCAR-5 ovarian,2.28 µM
same,TGI,OVCAR-5 ovarian,5.23 µM
same,GI50,HT29 colon,1.82 µM
same,TGI,HT29 colon,3.42 µM
same,GI50,OVCAR-8 ovarian,1.85 µM
same,TGI,OVCAR-8 ovarian,3.66 µM
same,GI50,HOP-92 NSCLC,1.77 µM
same,TGI,HOP-92 NSCLC,3.79 µM
same,GI50,RPMI-8226 leukemia,3.42 µM
same,TGI,RPMI-8226 leukemia,> 100 µM
same,GI50,IGROV1 ovarian,2.17 µM
same,TGI,IGROV1 ovarian,5.06 µM
same,GI50,MOLT-4 leukemia,3.23 µM
same,TGI,MOLT-4 leukemia,> 100 µM
same,GI50,CCRF-CEM leukemia,3.03 µM
same,TGI,CCRF-CEM leukemia,> 100 µM
same,GI50,OVCAR-3 ovarian,2.29 µM
same,TGI,OVCAR-3 ovarian,4.56 µM
same,GI50,NCI-H522 lung,1.72 µM
same,TGI,NCI-H522 lung,3.4 µM
same,GI50,COLO 205 colon,4.51 µM
same,TGI,COLO 205 colon,19.3 µM
same,GI50,NCI-H23 lung,1.93 µM
same,TGI,NCI-H23 lung,3.84 µM
same,GI50,K-562 leukemia,3.65 µM
same,TGI,K-562 leukemia,> 100 µM
same,GI50,SK-MEL-28 melanoma,1.76 µM
same,TGI,SK-MEL-28 melanoma,3.21 µM
same,GI50,CAKI-1 renal,1.89 µM
same,TGI,CAKI-1 renal,3.83 µM
same,GI50,ACHN renal,2.4 µM
same,TGI,ACHN renal,5.86 µM
same,GI50,KM12 colon,3.49 µM
same,TGI,KM12 colon,13.3 µM
same,GI50,NCI-H460 lung,2.01 µM
same,TGI,NCI-H460 lung,4.32 µM
same,GI50,HL-60(TB) leukemia,5.04 µM
same,TGI,HL-60(TB) leukemia,> 100 µM
same,GI50,RXF 393 renal,1.84 µM
same,TGI,RXF 393 renal,3.56 µM
same,GI50,MDA-MB-468 breast,2.51 µM
same,TGI,MDA-MB-468 breast,6.44 µM
same,GI50,UACC-257 melanoma,1.92 µM
same,TGI,UACC-257 melanoma,3.93 µM
same,GI50,SF-539 CNS,1.79 µM
same,TGI,SF-539 CNS,3.42 µM
same,GI50,TK-10 renal,3.09 µM
same,TGI,TK-10 renal,10.8 µM
same,GI50,DU-145 prostate,2.77 µM
same,TGI,DU-145 prostate,7.62 µM
same,GI50,OVCAR-4 ovarian,2.5 µM
same,TGI,OVCAR-4 ovarian,6.64 µM
same,GI50,HS 578T breast,2.56 µM
same,TGI,HS 578T breast,7.29 µM
same,GI50,M14 melanoma,2.3 µM
same,TGI,M14 melanoma,5.27 µM
COc1cccc(/C(C#N)=C/c2nc3c(N4CCOCC4)nc(Cl)nc3n2C)c1,GI50,MDA-MB-468 breast,0.497 µM
same,TGI,MDA-MB-468 breast,1.87 µM
CC(C)c1cnn2c(NCc3ccccc3)cc(NC[C@H]3CCNC[C@@H]3O)nc12,GI50,MDA-MB-468 breast,0.381 µM and 0.519 µM
same,TGI,MDA-MB-468 breast,1.79 µM and 2.33 µM
CC[C@H](Nc1ncnc2nc[nH]c12)c1nc2cccc(F)c2c(=O)n1-c1ccccc1,GI50,MDA-MB-468 breast,2.1 µM
same,TGI,MDA-MB-468 breast,10.4 µM
COc1cc2ncn(-c3cc(OCc4ccccc4C(F)(F)F)c(C(=O)N(C)C)s3)c2cc1OC,GI50,MDA-MB-468 breast,7.66 µM
same,TGI,MDA-MB-468 breast,> 14.7 µM
COc1ccc(-c2cs/c(=N\N=C\c3ccc(O)cc3O)n2/N=C/c2ccc(O)cc2O)cc1,GI50,MDA-MB-468 breast,1.96 µM
same,TGI,MDA-MB-468 breast,5.68 µM
CCNc1cc(-c2cccc(OC(F)(F)F)c2)nc2ccc(N3CCCC3)cc12,GI50,MDA-MB-468 breast,1.4 µM
same,TGI,MDA-MB-468 breast,3.35 µM
Cc1nc(N)nc2c1CCC(O)S2 (stereo not drawn),GI50,MDA-MB-468 breast,2.74 µM
same,TGI,MDA-MB-468 breast,13 µM
